Measured values reported in patent publication US11980607B2, “Methods of treating malignant lymphoproliferative disorders” (Actuate Therapeutics Inc., priority 2018, dated 2024).

Tests used:
SUDHL-4 cell line = assay: Dose response of combinations (MTS viability, day 3); format: cell-based; settings: SUDHL-4, combined with 0.5 μM 9-ING-41, day 3 MTS
Method: (§1) FIGS. 2A-2O show the viability of lymphoma cells with chemotherapy agents in combination with 9-ING-41. 10,000 cells (FIGS. 1A, F, K: Daudi; FIGS. 1B, G, L: SUDHL-4; FIGS. 1C, H, M: KPUM-UH1; FIGS. 1D, I, N: Karpas 422; E, J, O: TMD8) were plated per well of a 96-well plate and treated with a dose response series of both 9-ING-41 (0-0.5 μM) and Venetoclax (0-5,000 nM) (FIGS. 1A-E) or BAY-1143572 (0-50 μM) (FIGS. 1F-J) or Idelalisib (0-50 μM) (FIGS. 1K-O) in triplicate. Viability after 3 days was analyzed using the MTS assay. Briefly, 20 μl of MTS reagent was added to cells and incubated for 2 hours and, the absorbance at 490 nm was read using a Biotek plate reader. Relative absorbance is calculated after setting the average absorbance of the no-treatment control as 1. Absorbance at OD=490 nm increases proportionally to cell density.
(§2) Daudi, SUDHL-4, KPUM-UH1, Karpas 422, or TMD8 cells were treated simultaneously with a series of concentrations of 9-ING-41 (0 μM, 0.05 μM, 0.5 μM) and either Venetoclax (0 nM, 0.5 nM, 5 nM, 50 nM, 500 nM, 5000 nM), BAY-1143572 (0 μM, 0.005 μM, 0.05 μM, 0.5 μM, 5 μM, 50 μM), or Idelalisib (0 μM, 0.005 μM, 0.05 μM, 0.5 μM, 5 μM, 50 μM). Viability at day 3 using an MTS assay was determined as described above. The background absorbance was subtracted from the A490 of the samples and the A490 of the vehicle/no-treatment control was set to 1, and the relative A490s of the rest of the samples were calculated. The IC50 was calculated as the concentration of the drug at which A490 reached 0.5. Additive effects were calculated as a fold change in the IC50 of a novel agent when combined with 0.5 μM of 9-ING-41.

KPUMUH1 cell line = assay: as above; format: cell-based; settings: KPUMUH1, combined with 0.5 μM 9-ING-41, day 3 MTS
Method: as §1, §2

| SMILES | Reduction in the IC50 value on combination with 9-ING-41 (SUDHL-4 cell line) | Reduction in the IC50 value on combination with 9-ING-41 (KPUMUH1 cell line) |
| --- | --- | --- |
| COc1cc(F)ccc1-c1ncnc(Nc2cccc(C[S@](C)(=N)=O)c2)n1 [BAY-1143572] | 8 fold | – |
| CC1(C)CCC(CN2CCN(c3ccc(C(=O)NS(=O)(=O)c4ccc(NCC5CCOCC5)c([N+](=O)[O-])c4)c(Oc4cnc5[nH]ccc5c4)c3)CC2)=C(c2ccc(Cl)cc2)C1 [Venetoclax] | 8 fold | 2 fold |
